This is an account of results in ChEMBL document CHEMBL3734719, “Discovery of highly potent triazoleantifungal agents with piperidine-oxadiazole side chains” (2015).

Molecules are shown by their SMILES. In brackets after ≈: the same amount, converted by molar mass. Activity calls are given as the source filed them. The rule behind the calls is not given here. A value given as a limit tells only on which side of the number the result lay.

Test [1] relates to Candida albicans. Nature of the test: Antifungal activity against Candida albicans SC5314 assessed as inhibition of yeast to hypha transisition at >1 ug/ml after 3 hrs measured as increase in pseudohyphal cells. Type of test: functional, organism-based.
Another test concerns Candida parapsilosis. Nature of the test: Antifungal activity against Candida parapsilosis after 48 hrs by spectrophotometry. Type of test: functional. The settings on record: Lodderomyces parapsilosis.
Test [2] relates to Candida albicans. Kind of test: Antifungal activity against fluconazole-resistant Candida albicans 805 after 48 hrs by spectrophotometry. Type of test: functional. The settings on record: Candida albicans, 805, 48 h.
The next test has as its system Caenorhabditis elegans. Nature of the test: Growth inhibition of Caenorhabditis elegans at 1 to 160 ug/ml after 6 days. Type of test: functional, organism-based.
Test [3] deals with Candida albicans. Kind of test: Antifungal activity against Candida albicans SC5314 assessed as inhibition of yeast to hypha transisition at >1 ug/ml after 3 hrs measured as decrease in hyphae. Type of test: functional, organism-based.
Test [4] deals with Candida albicans. Nature of the test: Antifungal activity against fluconazole-resistant Candida albicans 0710922 after 48 hrs by spectrophotometry. Type of test: functional. The settings on record: Candida albicans, 0710922, 48 h.
The subject of test [5] is Candida albicans. Nature of the test: Antifungal activity against fluconazole-resistant Candida albicans 103 after 48 hrs by spectrophotometry. The following applies: Candida albicans, 103, 48 h. Type of test: functional.
The test system of another test is Nannizzia gypsea. Nature of the test: Antifungal activity against Microsporum gypseum after 48 hrs by spectrophotometry. Type of test: functional.
The next test deals with Nakaseomyces glabratus. Kind of test: Antifungal activity against Candida glabrata after 48 hrs by spectrophotometry. Type of test: functional.
The test system of another test is Cryptococcus neoformans. Nature of the test: Antifungal activity against Cryptococcus neoformans after 48 hrs by spectrophotometry. Type of test: functional.
In test [6] the test system is Candida albicans. Nature of the test: Antifungal activity against Candida albicans after 48 hrs by spectrophotometry relative to fluconazole. Type of test: functional.
The next test has as its system Aspergillus fumigatus. Nature of the test: Antifungal activity against Aspergillus fumigatus after 48 hrs by spectrophotometry. Type of test: functional.
Test [7] relates to Candida albicans. Kind of test: Antifungal activity against Candida albicans SC5314 assessed as inhibition of yeast to hypha transisition at >1 ug/ml after 3 hrs measured as increase in yeast cells. Type of test: functional, organism-based.
The test system of test [8] is Candida albicans. Nature of the test: Antifungal activity against Candida albicans after 48 hrs by spectrophotometry. Type of test: functional.
The next test relates to Trichophyton rubrum. Kind of test: Antifungal activity against Trichophyton rubrum after 48 hrs by spectrophotometry. Type of test: functional.

In the case of `COc1ccc(-c2noc(C3CCN(CC(O)(Cn4cncn4)c4ccc(F)cc4F)CC3)n2)cc1` (stereo unspecified), the inhibition entry in the test on Candida albicans [1], with Candida albicans [3] and in the test on Candida albicans [7] was “Active” each time. In addition, the MIC80 amounted to 0.25 µg/mL (≈ 0.504 µM) in the test on Candida parapsilosis; 8 µg/mL (≈ 16.1 µM) against Candida albicans [2]; 16 µg/mL (≈ 32.2 µM) in the test on Candida albicans [4]; 4 µg/mL (≈ 8.06 µM) in the test with Candida albicans [5]; 2 µg/mL (≈ 4.03 µM) against Nannizzia gypsea; 1 µg/mL (≈ 2.01 µM) in the test with Nakaseomyces glabratus. Also, the MIC80 against Cryptococcus neoformans stood at 0.25 µg/mL (≈ 0.504 µM); against Aspergillus fumigatus it was 1 µg/mL (≈ 2.01 µM); against Candida albicans [8], 0.016 µg/mL (≈ 0.0322 µM); against Trichophyton rubrum, 0.5 µg/mL (≈ 1.01 µM). Besides, the MIC50 was 0.125 µg/mL (≈ 0.252 µM) against Candida albicans [2], 0.125 µg/mL (≈ 0.252 µM) in the test with Candida albicans [4] and 0.25 µg/mL (≈ 0.504 µM) against Candida albicans [5]. For the same molecule, the inhibition result in the test on Caenorhabditis elegans was “inactive”. Moreover, the Ratio in the test with Candida albicans [6] amounted to 8.

As for `OC(CN1CCC(c2nnc(-c3ccc(C(F)(F)F)cc3)o2)CC1)(Cn1cncn1)c1ccc(F)cc1F` (stereo unspecified), the inhibition result with Candida albicans [1], in the test on Candida albicans [3] and with Candida albicans [7] was “Active” in each case. The MIC80 stood at 0.5 µg/mL (≈ 0.935 µM) in the test on Candida parapsilosis; 16 µg/mL (≈ 29.9 µM) in the test with Candida albicans [2]; 16 µg/mL (≈ 29.9 µM) against Candida albicans [4]; 8 µg/mL (≈ 15 µM) in the test on Candida albicans [5]; 1 µg/mL (≈ 1.87 µM) in the test with Nannizzia gypsea; 2 µg/mL (≈ 3.74 µM) in the test with Nakaseomyces glabratus. Also, the MIC80 came out at 0.25 µg/mL (≈ 0.468 µM) with Cryptococcus neoformans, 2 µg/mL (≈ 3.74 µM) against Aspergillus fumigatus, 0.031 µg/mL (≈ 0.058 µM) in the test with Candida albicans [8] and 1 µg/mL (≈ 1.87 µM) in the test on Trichophyton rubrum. The MIC50 was found to be 0.0625 µg/mL (≈ 0.117 µM) against Candida albicans [2], 0.125 µg/mL (≈ 0.234 µM) against Candida albicans [4] and 0.25 µg/mL (≈ 0.468 µM) with Candida albicans [5]. Besides, the inhibition result in the test on Caenorhabditis elegans is “inactive”. Further, in the test with Candida albicans [6], the Ratio stood at 8.

For `OC(Cn1cncn1)(Cn1cncn1)c1ccc(F)cc1F` [FLUCONAZOLE], the MIC80 with Candida parapsilosis was 2 µg/mL (≈ 6.53 µM); against Candida albicans [2], more than 1020 µg/mL; in the test on Candida albicans [4], more than 1020 µg/mL; with Candida albicans [5], more than 1020 µg/mL; against Nannizzia gypsea, 32 µg/mL (≈ 104 µM); with Nakaseomyces glabratus, 4 µg/mL (≈ 13.1 µM). Also, the MIC80 in the test on Cryptococcus neoformans came to 0.25 µg/mL (≈ 0.816 µM); in the test with Aspergillus fumigatus it was 4 µg/mL (≈ 13.1 µM); in the test with Candida albicans [8] it was 0.25 µg/mL (≈ 0.816 µM); against Trichophyton rubrum, 2 µg/mL (≈ 6.53 µM). For the same molecule, the results for the MIC50 in the test with Candida albicans [2], with Candida albicans [4] and with Candida albicans [5] were 256 µg/mL (≈ 836 µM), 512 µg/mL (≈ 1670 µM) and 256 µg/mL (≈ 836 µM), respectively.

In the case of `Cc1ccccc1-c1nnc(C2CCN(CC(O)(Cn3cncn3)c3ccc(F)cc3F)CC2)o1` (stereo unspecified), the MIC80 against Candida parapsilosis stood at 4 µg/mL (≈ 8.32 µM); in the test on Nannizzia gypsea it was 16 µg/mL (≈ 33.3 µM); against Nakaseomyces glabratus, 8 µg/mL (≈ 16.6 µM); against Cryptococcus neoformans, 4 µg/mL (≈ 8.32 µM); in the test with Aspergillus fumigatus, 8 µg/mL (≈ 16.6 µM); against Candida albicans [8], 0.125 µg/mL (≈ 0.26 µM). This molecule also gave an MIC80 against Trichophyton rubrum of 16 µg/mL (≈ 33.3 µM).
